Values quoted from earlier work as cited in patent US20060287318A1, “Method for treating glaucoma III B” (priority 2000, published 2006).

Legend:
[1] = literature description of a compound series
Rhesus monkeys = details: accommodative responses to i.m. pilocarpine; reported in the concurrently filed application "Methods for Treating Glaucoma I"
Aged Rhesus monkeys = details: drug treated vs. control eye; baseline and pilocarpine-stimulated conditions; reported in the concurrently filed application "Methods for Treating Glaucoma I"

Cc1ccc(C(=O)C[n+]2ccccc2)cc1.[Cl-] [1-[2-(4-methylphenyl)-2-oxoethyl]-pyridinium chloride]
glucose lowering effect [1]: inactive

Cc1sc[n+](CC(=O)c2ccccc2)c1C.[Cl-] [4,5-dimethyl-3-(2-oxoethyl-phenethyl)thiazolium chloride]
improvement in accommodation (Rhesus monkeys): Improvement in accommodation has been illustrated | improvement in ophthalmologic function (fluid outflow facility) (Aged Rhesus monkeys): improvement has been illustrated
